Results published in ChEMBL document CHEMBL1201862, “PubChem BioAssay data set” (2004).
Activity calls are given as the source filed them.

Tests used:
[1] = molecular target: Cytochrome P450 3A4 (Homo sapiens, UniProt P08684);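 note: CYP3A4 tested as one member of a cytochrome P450 panel screen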
[2] = molecular target: Mitogen-activated protein kinase 10 (Homo sapiens, UniProt P53779); test: Dose response biochemical screening assay for inhibitors of c-Jun N-Terminal Kinase 3 (JNK3). [Related pubchem assays: 746 ]
[3] = Luminescence Cell-Based Dose Response HTS to Identify Activators of Luciferase Translation or Activity in H4 […] Cells. [Related pubchem assays: 1829 (Project Summary), 1814 (Primary HTS)]; assay type: functional
[4] = tested on: H4; test: Luminescence Cell-Based Dose Response HTS to Identify Activators of 5'UTR Stem-Loop Driven Prion Protein mRNA Translation in H4 Neuroglioblastoma Cells. [Related pubchem assays: 1829 (Project Summary), 1814 (Primary HTS)]; assay type: functional; details: Homo sapiens
[5] = Luminescence Cell-Based Dose Confirmation HTS to Identify Activators of 5'UTR Stem-Loop Driven Alpha-Synuclein mRNA Translation in H4 Neuroglioblastoma Cells. [Related pubchem assays: 1829 (Project Summary), 1814 (Primary HTS)]; assay type: functional
[6] = NIH-3T3 fibroblast cytotoxicity, dose response, cytotoxicity control, cell-based, fluorescence, Alamar Blue, secondary assay (AID 2327); assay type: functional;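 note: NIH-3T3 mouse fibroblasts cultured with fluconazole at 8 µg/mL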
[7] = C. albicans growth with fluconazole, confirmation, fluorescence, retest (AID 2467); assay type: functional, cell-based
[8] = molecular target: Induced myeloid leukemia cell differentiation protein Mcl-1 (Homo sapiens, UniProt Q07820); assay type: functional
[9] = molecular target: T1, Mannose-6-phosphate isomerase (Homo sapiens, UniProt P34949); test: human PMI inhibitors, high substrate, primary screen, biochemical, fluorescence intensity, high mannose 6-phosphate (AID 1220)
T1 sequence (P34949 whole entry): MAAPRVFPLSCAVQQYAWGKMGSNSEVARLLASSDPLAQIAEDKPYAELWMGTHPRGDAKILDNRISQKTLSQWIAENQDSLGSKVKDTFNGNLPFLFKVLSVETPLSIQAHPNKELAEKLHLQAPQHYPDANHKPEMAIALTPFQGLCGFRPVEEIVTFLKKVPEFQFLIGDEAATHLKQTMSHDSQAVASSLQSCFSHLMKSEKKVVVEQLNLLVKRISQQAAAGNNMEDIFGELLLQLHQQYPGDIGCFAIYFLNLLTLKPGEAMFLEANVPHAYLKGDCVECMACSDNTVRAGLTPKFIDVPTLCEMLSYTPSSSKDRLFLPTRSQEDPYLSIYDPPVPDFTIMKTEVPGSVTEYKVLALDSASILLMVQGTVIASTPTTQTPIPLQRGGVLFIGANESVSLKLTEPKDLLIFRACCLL

[10] = cells
[11] = molecular target: T2, Oxysterols receptor LXR-beta (Homo sapiens, UniProt P55055); assay type: functional, cell-based;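 note: Cell-based luminescence dose-response assay of agonist activity at LXR, run as a confirmatory counterscreen to a daf-12 agonist screen; HEK293 cells with Gal4-LXR fusion and GAL4-driven luciferase reporter; agonist potency from rising luciferase signal of a Gal4-LXR reporter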
T2 sequence (P55055 whole entry): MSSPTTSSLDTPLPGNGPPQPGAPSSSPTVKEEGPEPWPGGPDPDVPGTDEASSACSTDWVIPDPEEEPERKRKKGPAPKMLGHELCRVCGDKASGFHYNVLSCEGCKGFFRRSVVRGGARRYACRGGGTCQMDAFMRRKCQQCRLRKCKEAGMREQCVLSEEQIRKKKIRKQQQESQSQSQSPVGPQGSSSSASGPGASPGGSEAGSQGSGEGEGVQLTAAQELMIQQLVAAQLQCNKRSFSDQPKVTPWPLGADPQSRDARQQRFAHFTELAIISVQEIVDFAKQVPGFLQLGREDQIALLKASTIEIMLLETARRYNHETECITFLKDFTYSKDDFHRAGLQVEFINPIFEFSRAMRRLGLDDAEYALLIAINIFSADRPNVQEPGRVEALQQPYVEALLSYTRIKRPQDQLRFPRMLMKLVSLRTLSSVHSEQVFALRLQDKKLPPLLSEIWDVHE

[12] = molecular target: T3, High affinity choline transporter 1 (Homo sapiens, UniProt Q9GZV3); test: CHT inhibitors, dose response, cell-based, 5-point CRC, membrane potential dye (AID 504840); assay type: functional
T3 sequence (Q9GZV3 whole entry): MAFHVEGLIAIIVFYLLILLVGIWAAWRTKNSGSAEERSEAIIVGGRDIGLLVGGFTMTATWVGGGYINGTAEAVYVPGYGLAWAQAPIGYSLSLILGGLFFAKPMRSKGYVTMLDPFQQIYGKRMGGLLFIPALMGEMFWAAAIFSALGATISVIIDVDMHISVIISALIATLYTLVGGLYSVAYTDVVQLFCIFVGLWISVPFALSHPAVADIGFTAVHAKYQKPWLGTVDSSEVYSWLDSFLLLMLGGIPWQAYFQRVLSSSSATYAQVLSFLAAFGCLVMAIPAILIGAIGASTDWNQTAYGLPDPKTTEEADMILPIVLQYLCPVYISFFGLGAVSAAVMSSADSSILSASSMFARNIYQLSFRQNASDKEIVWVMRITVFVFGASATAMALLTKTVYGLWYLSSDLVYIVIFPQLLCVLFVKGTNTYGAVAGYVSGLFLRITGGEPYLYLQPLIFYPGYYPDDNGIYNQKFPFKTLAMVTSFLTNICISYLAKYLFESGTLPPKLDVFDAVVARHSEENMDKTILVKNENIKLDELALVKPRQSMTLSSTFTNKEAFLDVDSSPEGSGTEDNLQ

[13] = Vero E6 cell cytotoxicity, dose response, cytotoxicity control for non-replicating M. tuberculosis project, secondary assay (AID 492998); assay type: functional, VeroE6; details: Vero C1008
[14] = microbe, parasite or virus in culture; assay type: functional; details: Mycobacterium tuberculosis
[15] = cells; assay type: functional
[16] = THP-1 cell cytotoxicity, dose response, cytotoxicity control for non-replicating M. tuberculosis project (AID 489025); assay type: functional
[17] = THP-1 cell cytotoxicity, dose response, cytotoxicity control for Vif-APOBEC3G degradation inhibitor project, THP-1 cells (AID 1117359); assay type: functional; details: Human immunodeficiency virus 1, THP-1
[18] = molecular target: Cytochrome P450 2C9 (Homo sapiens, UniProt P11712)
Sequence of Cytochrome P450 2C9 (P11712 whole entry): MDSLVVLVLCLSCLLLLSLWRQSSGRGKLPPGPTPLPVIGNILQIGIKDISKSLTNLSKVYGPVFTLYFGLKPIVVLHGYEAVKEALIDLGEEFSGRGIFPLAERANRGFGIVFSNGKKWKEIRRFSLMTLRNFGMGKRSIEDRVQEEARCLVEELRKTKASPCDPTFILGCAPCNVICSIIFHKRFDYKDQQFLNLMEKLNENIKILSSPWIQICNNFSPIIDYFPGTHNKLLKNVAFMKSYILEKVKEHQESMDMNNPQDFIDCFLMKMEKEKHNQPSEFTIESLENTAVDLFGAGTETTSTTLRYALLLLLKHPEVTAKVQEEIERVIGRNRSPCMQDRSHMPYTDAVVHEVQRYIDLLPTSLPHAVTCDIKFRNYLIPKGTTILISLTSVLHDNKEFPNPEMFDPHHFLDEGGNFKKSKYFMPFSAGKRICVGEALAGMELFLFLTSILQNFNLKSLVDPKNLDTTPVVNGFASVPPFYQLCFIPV

Sequence of Cytochrome P450 3A4 (P08684 whole entry): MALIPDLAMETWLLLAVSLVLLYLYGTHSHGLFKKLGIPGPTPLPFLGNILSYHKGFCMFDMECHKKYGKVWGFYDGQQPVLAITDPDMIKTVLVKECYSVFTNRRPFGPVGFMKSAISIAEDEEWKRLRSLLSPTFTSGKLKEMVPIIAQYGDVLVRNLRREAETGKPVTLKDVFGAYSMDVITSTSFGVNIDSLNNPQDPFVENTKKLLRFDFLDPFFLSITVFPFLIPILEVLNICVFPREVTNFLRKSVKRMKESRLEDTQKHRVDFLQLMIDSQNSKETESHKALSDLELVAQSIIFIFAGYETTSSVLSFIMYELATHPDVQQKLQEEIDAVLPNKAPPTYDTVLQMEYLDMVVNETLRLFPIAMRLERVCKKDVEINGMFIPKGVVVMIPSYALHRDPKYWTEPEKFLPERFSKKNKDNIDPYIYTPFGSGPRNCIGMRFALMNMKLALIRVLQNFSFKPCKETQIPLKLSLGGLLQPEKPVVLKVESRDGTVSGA
Sequence of Mitogen-activated protein kinase 10 (P53779 whole entry): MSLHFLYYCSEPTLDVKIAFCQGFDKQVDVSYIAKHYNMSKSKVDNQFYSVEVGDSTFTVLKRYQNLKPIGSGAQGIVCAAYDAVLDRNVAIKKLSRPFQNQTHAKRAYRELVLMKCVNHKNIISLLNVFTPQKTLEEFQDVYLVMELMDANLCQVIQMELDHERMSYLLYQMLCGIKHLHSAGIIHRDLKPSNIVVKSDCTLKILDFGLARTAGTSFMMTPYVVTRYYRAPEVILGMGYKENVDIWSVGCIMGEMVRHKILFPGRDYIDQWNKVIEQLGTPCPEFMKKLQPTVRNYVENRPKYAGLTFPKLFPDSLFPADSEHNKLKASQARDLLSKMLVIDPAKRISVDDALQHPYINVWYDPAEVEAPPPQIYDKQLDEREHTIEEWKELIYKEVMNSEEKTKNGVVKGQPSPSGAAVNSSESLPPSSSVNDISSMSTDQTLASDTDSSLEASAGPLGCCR
Sequence of Induced myeloid leukemia cell differentiation protein Mcl-1 (Q07820 whole entry): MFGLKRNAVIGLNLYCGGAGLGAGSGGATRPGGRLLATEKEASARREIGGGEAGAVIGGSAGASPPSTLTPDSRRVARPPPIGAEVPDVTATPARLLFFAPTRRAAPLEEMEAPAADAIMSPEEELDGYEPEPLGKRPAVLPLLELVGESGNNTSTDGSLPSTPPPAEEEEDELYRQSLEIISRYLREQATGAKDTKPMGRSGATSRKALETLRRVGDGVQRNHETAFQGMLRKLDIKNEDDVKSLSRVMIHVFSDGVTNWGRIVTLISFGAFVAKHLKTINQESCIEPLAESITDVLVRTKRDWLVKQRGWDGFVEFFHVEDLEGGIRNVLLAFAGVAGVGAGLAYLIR

With `CN1[C@@H]2CC[C@H]1CC(NC(=O)c1nn(C)c3ccccc13)C2` (stereo partly specified) the AC50 [1] was “inconclusive”.

In the case of `Cc1nn(-c2ccccc2)c2c1C(O)n1c(nc3ccccc31)S2` (stereo unspecified), the IC50 [2] is reported as > 93.1 µM (not active), the EC50 [3] is reported as > 120 µM (not active) and the EC50 [4] is reported as > 120 µM (not active). For the same molecule, the EC50 [5] was > 120 µM (not active).

For `COc1cc(CC(=O)Nc2nccs2)cc(OC)c1OC`, the EC50 [6] was > 160 µM (inactive), the IC50 [2] was > 93.1 µM (not active) and the EC50 [7] was > 38 µM (not active).

In the case of `Cc1ccc(-n2nc3cc(C)c(N)cc3n2)cc1`, the IC50 [8] is reported as 7.02 µM (active), the IC50 [9] is reported as > 50 µM (not active) and the EC50 [10] is reported as > 67.5 µM (inactive). For the same molecule, the EC50 [11] was > 67.5 µM (inactive).

In the case of `O=C(Nc1cc(C(F)(F)F)ccc1-n1cncn1)c1ccc([N+](=O)[O-])o1`, the IC50 [12] is reported as 11 µM (active), the CC50 [13] is reported as 8.89 µM (active) and the CC50 [14] is reported as 6.96 µM (active). For the same molecule, the IC50 [15] was 19.8 µM (active) and the CC50 [16] was 37.3 µM (active).

In the case of `O=C(Oc1ccccc1)N1CCC2(CC1)CCN(c1ncccn1)CC2`, the AC50 [1] is reported as “inconclusive”.

For `COc1ccc(Cc2nnc(NC(=O)CSc3ccccc3)s2)cc1`, the CC50 [17] was > 40 µM (active).

With `COC(=O)c1ccccc1NC(=O)c1c(Br)cnn1C` the AC50 [18] was “inconclusive” and the AC50 [1] was “inconclusive”.
